Results: patent US8003649B2 (AstraZeneca AB, priority 2007, dated 2011)

Target: T1, Androgen Receptor (AR) (Homo sapiens, UniProt P10275, T878A)
T1 construct: cell based immuno-fluorescence assay using the LNCaP prostate epithelial cell line; endogenous in cells; host or cells: LNCaP clone FGC (ATCC CRL-1740)
T1 sequence (P10275 1-920 T878A): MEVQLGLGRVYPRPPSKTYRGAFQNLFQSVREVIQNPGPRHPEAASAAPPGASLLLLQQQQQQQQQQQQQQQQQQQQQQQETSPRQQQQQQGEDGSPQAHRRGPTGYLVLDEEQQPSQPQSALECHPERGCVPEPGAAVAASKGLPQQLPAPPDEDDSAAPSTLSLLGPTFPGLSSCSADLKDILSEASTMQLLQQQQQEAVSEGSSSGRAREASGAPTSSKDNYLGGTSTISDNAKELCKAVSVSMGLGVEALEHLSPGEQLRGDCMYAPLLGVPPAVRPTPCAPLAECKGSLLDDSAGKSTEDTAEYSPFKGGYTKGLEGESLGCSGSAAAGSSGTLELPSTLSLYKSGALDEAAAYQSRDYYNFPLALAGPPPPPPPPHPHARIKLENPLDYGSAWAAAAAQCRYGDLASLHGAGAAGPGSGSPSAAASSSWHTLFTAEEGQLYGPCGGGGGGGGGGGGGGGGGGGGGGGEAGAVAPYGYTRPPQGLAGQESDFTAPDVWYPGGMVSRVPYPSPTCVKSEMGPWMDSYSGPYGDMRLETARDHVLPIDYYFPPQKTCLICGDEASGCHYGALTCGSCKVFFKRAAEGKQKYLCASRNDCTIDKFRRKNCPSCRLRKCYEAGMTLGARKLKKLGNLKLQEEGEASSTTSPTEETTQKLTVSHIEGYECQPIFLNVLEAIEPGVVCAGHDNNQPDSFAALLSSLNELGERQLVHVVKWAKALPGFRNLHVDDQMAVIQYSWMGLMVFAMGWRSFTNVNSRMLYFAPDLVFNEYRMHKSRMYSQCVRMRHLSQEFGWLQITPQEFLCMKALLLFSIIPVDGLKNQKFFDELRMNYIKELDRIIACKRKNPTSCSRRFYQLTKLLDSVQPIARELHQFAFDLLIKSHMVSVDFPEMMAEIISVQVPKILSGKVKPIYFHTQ
Assay: LNCaP Androgen Receptor Down-regulation Cell Assay (immunofluorescence end point)
Assay type: cell-based
Conditions: LNCaP prostate carcinoma cells, compound incubation 20-22 hours, 50% reduction of the AR signal; read-out: Androgen Receptor Down-regulation Assay (a) IC50/μM
Summary of the method: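 AR loss reported as IC50 from curve fits of fluorescence dose-response data, with AR immunostained and read by laser-scanning cytometry. Compound exposure was 20-22 h at 37° C in LNCaP cells grown in 5% charcoal-stripped FBS and plated overnight beforehand.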

FC(F)(F)c1nnc2ccc(N3CCC(OCC4CC4)CC3)nn12 [Example 304, 6-[4-(cyclopropylmethoxy)piperidin-1-yl]-3-(trifluoromethyl)[1,2,4]triazolo[4,3-b]pyridazine] and FC(F)(F)c1nnc2ccc(N3CCC(c4c[nH]c5ccncc45)CC3)nn12 [Example 326] are within 1.5-fold of each other in DC50: 1.8 µM for the first, 2 µM for the second.

Going from C[C@H](c1ccc(C#N)cc1)N1CCN(c2ccc3nnc(C(F)(F)F)n3n2)CC1 [Example 307, 4-[(1R)-1-[4-[3-(trifluoromethyl)[1,2,4]triazolo[4,3-b]pyridazin-6-yl]piperazin-1-yl]ethyl]benzonitrile] to C[C@H](c1ccc(F)cc1)N1CCN(c2ccc3nnc(C(F)(F)F)n3n2)CC1 [Example 308, 6-[4-[(1R)-1-(4-fluorophenyl)ethyl]piperazin-1-yl]-3-(trifluoromethyl)[1,2,4]triazolo[4,3-b]pyridazine], the DC50 falls from 3.4 µM to 1.4 µM (2.4-fold).

Compared with CC(C)(c1ccc(F)cc1)N1CCN(c2ccc3nnc(C(F)(F)F)n3n2)CC1 [Example 309, 6-[4-[1-(4-fluorophenyl)-1-methylethyl]piperazin-1-yl]-3-(trifluoromethyl)[1,2,4]triazolo[4,3-b]pyridazine], COc1ccc(C2(O)CCN(c3ccc4nnc(C(F)(F)F)n4n3)CC2)cc1 [Example 311] is 3.1-fold higher in DC50: 1.6 µM for the first, 5 µM for the second.

First: OC1(c2cccc(F)c2)CCN(c2ccc3nnc(C(F)(F)F)n3n2)CC1 [Example 310, 4-(3-fluorophenyl)-1-[3-(trifluoromethyl)[1,2,4]triazolo[4,3-b]pyridazin-6-yl]piperidin-4-ol]
Second: OC1(c2cccc(Cl)c2)CCN(c2ccc3nnc(C(F)(F)F)n3n2)CC1 [Example 313]
The DC50 of the first is 1.8-fold higher: 3.2 µM for the first, 1.8 µM for the second.

Compared with COc1cccc(C2(O)CCN(c3ccc4nnc(C(F)(F)F)n4n3)CC2)c1 [Example 312], COc1ccccc1C1(O)CCN(c2ccc3nnc(C(F)(F)F)n3n2)CC1 [Example 314] is 1.8-fold higher in DC50: 2.6 µM for the first, 4.6 µM for the second.

First: OC1(c2ccccc2Cl)CCN(c2ccc3nnc(C(F)(F)F)n3n2)CC1 [Example 315, 4-(2-chlorophenyl)-1-[3-(trifluoromethyl)[1,2,4]triazolo[4,3-b]pyridazin-6-yl]piperidin-4-ol]
Second: N#Cc1ccccc1C1(O)CCN(c2ccc3nnc(C(F)(F)F)n3n2)CC1 [Example 317, 2-[4-hydroxy-1-[3-(trifluoromethyl)[1,2,4]triazolo[4,3-b]pyridazin-6-yl]piperidin-4-yl]benzonitrile]
The DC50 of the first is 2-fold lower: 2 µM for the first, 4.1 µM for the second.

OC1(c2cncc(C(F)(F)F)c2)CCN(c2ccc3nnc(C(F)(F)F)n3n2)CC1 [Example 320, 4-[5-(trifluoromethyl)pyridin-3-yl]-1-[3-(trifluoromethyl)[1,2,4]triazolo[4,3-b]pyridazin-6-yl]piperidin-4-ol] and OC1(c2ccc(Cl)nc2)CCN(c2ccc3nnc(C(F)(F)F)n3n2)CC1 [Example 323, 4-(6-chloropyridin-3-yl)-1-[3-(trifluoromethyl)[1,2,4]triazolo[4,3-b]pyridazin-6-yl]piperidin-4-ol] cannot be ordered by DC50: 8.6 µM for the first, over 8.1 µM for the second.

COc1ccc(C2(O)CCN(c3ccc4nnc(C(F)(F)F)n4n3)CC2)cn1 [Example 321, 4-(6-methoxypyridin-3-yl)-1-[3-(trifluoromethyl)[1,2,4]triazolo[4,3-b]pyridazin-6-yl]piperidin-4-ol] and Cc1ccnc(C2(O)CCN(c3ccc4nnc(C(F)(F)F)n4n3)CC2)c1 [Example 322, 4-(4-methylpyridin-2-yl)-1-[3-(trifluoromethyl)[1,2,4]triazolo[4,3-b]pyridazin-6-yl]piperidin-4-ol] are within 1.5-fold of each other in DC50: 8 µM for the first, 9.6 µM for the second.

OC1(c2nccs2)CCN(c2ccc3nnc(C(F)(F)F)n3n2)CC1 [Example 324, 4-(1,3-thiazol-2-yl)-1-[3-(trifluoromethyl)[1,2,4]triazolo[4,3-b]pyridazin-6-yl]piperidin-4-ol] and FC(F)(F)c1nnc2ccc(N3CCC(c4c[nH]c5ncccc45)CC3)nn12 [Example 325, 6-[4-(1H-pyrrolo[2,3-b]pyridin-3-yl)piperidin-1-yl]-3-(trifluoromethyl)[1,2,4]triazolo[4,3-b]pyridazine] cannot be ordered by DC50: 5.9 µM for the first, over 1.2 µM for the second.

FC(F)(F)c1nnc2ccc(N3CCC(c4c[nH]c5cnccc45)CC3)nn12 [Example 327] and FC(F)(F)c1nnc2ccc(N3CCC(c4c[nH]c5cccnc45)CC3)nn12 [Example 328] are within 1.5-fold of each other in DC50: 1 µM for the first, 0.75 µM for the second.

First: COC(=O)c1ccccc1C1CCN(c2ccc3nnc(C(F)(F)F)n3n2)C1 (centres unmarked) [Example 333]
Second: COC(=O)c1cccc(C2CCN(c3ccc4nnc(C(F)(F)F)n4n3)C2)c1 (centres unmarked) [Example 334]
The DC50 of the first is 2.5-fold higher: 2.7 µM for the first, 1.1 µM for the second.

Compared with FC(F)(F)c1ccc(C2CCN(c3ccc4nnc(C(F)(F)Cl)n4n3)C2)cc1 (centres unmarked) [Example 335], FC(F)(F)c1cccc(C2CCN(c3ccc4nnc(C(F)(F)Cl)n4n3)C2)c1 (centres unmarked) [Example 336] is 1.6-fold higher in DC50: 1.5 µM for the first, 2.4 µM for the second.

FC(F)(Cl)c1nnc2ccc(N3CCN(c4c(Cl)cncc4Cl)CC3)nn12 [Example 339, 3-[chloro(difluoro)methyl]-6-[4-(3,5-dichloropyridin-4-yl)piperazin-1-yl][1,2,4]triazolo[4,3-b]pyridazine] and Cc1cccc(C)c1N1CCN(c2ccc3nnc(C(F)(F)Cl)n3n2)CC1 [Example 353, 3-[chloro(difluoro)methyl]-6-[4-(2,6-dimethylphenyl)piperazin-1-yl][1,2,4]triazolo[4,3-b]pyridazine] are within 1.5-fold of each other in DC50: 0.77 µM for the first, 0.69 µM for the second.

Going from N#Cc1ccc(CN2CCN(c3ccc4nnc(C(F)(F)Cl)n4n3)CC2)cc1 [Example 342] to FC(F)(Cl)c1nnc2ccc(N3CCN(Cc4ccc(Br)cc4)CC3)nn12 [Example 348], the DC50 falls from 2.1 µM to 1 µM (2.1-fold).

Going from N#Cc1cccc(CN2CCN(c3ccc4nnc(C(F)(F)Cl)n4n3)CC2)c1 [Example 343] to FC(F)(Cl)c1nnc2ccc(N3CCN(Cc4cccc(Br)c4)CC3)nn12 [Example 344], the DC50 falls from 1.7 µM to 0.29 µM (5.9-fold).

First: Fc1cccc(CN2CCN(c3ccc4nnc(C(F)(F)Cl)n4n3)CC2)c1 [Example 345]
Second: FC(F)(F)c1cccc(CN2CCN(c3ccc4nnc(C(F)(F)Cl)n4n3)CC2)c1 [Example 346]
The DC50 of the first is 7.7-fold lower: 1.1 µM for the first, 8.5 µM for the second.

Going from FC(F)(F)c1cccc(CN2CCN(c3ccc4nnc(C(F)(F)Cl)n4n3)CC2)c1 [Example 347] to FC(F)(Cl)c1nnc2ccc(N3CCN(Cc4ccsc4)CC3)nn12 [Example 357, 3-[chloro(difluoro)methyl]-6-[4-(thiophen-3-ylmethyl)piperazin-1-yl][1,2,4]triazolo[4,3-b]pyridazine], the DC50 rises from 0.97 µM to 2.1 µM (2.2-fold).

First: FC(F)(Cl)c1nnc2ccc(N3CCN(CCc4ccccc4)CC3)nn12 [Example 349, 3-[chloro(difluoro)methyl]-6-[4-(2-phenylethyl)piperazin-1-yl][1,2,4]triazolo[4,3-b]pyridazine]
Second: CC(c1ccccc1)N1CCN(c2ccc3nnc(C(F)(F)Cl)n3n2)CC1 (centres unmarked) [Example 350, 3-[chloro(difluoro)methyl]-6-[4-(1-Phenylethyl)piperazin-1-yl][1,2,4]triazolo[4,3-b]pyridazine]
The DC50 of the first is 2.3-fold higher: 1.7 µM for the first, 0.74 µM for the second.

FC(F)(F)c1cnc(N2CCCN(c3ccc4nnc(C(F)(F)Cl)n4n3)CC2)c(Cl)c1 [Example 351, 3-[chloro(difluoro)methyl]-6-[4-[3-chloro-5-(trifluoromethyl)pyridin-2-yl]-1,4-diazepan-1-yl][1,2,4]triazolo[4,3-b]pyridazine] and FC(F)(Cl)c1nnc2ccc(N3CCN(Cc4cccs4)CC3)nn12 [Example 356, 3-[chloro(difluoro)methyl]-6-[4-(thiophen-2-ylmethyl)piperazin-1-yl][1,2,4]triazolo[4,3-b]pyridazine] are within 1.5-fold of each other in DC50: 1.9 µM for the first, 2.2 µM for the second.

Going from CC1CN(Cc2ccccc2)CCN1c1ccc2nnc(C(F)(F)Cl)n2n1 (centres unmarked) [Example 352, 6-(4-benzyl-2-methylpiperazin-1-yl)-3-[chloro(difluoro)methyl][1,2,4]triazolo[4,3-b]pyridazine] to FC(F)(Cl)c1nnc2ccc(N3CC4CN(Cc5ccccc5)CC4C3)nn12 (centres unmarked) [Example 354, 6-(5-benzylhexahydropyrrolo[3,4-c]pyrrol-2(1H)-yl)-3-[chloro(difluoro)methyl][1,2,4]triazolo[4,3-b]pyridazine], the DC50 rises from 0.57 µM to 2.7 µM (4.7-fold).

FC(F)(Cl)c1nnc2ccc(N3CCCC(c4ccccc4)CC3)nn12 (centres unmarked) [Example 355, 3-[chloro(difluoro)methyl]-6-(4-phenylazepan-1-yl)[1,2,4]triazolo[4,3-b]pyridazine] showed a DC50 of 0.72 µM.
